Test results taken from publication PMC5522181 (ACS chemical neuroscience, 2017).
Read-outs that look alike come from different tables or passages of the source.

Columns and labels:
in vitro = settings: plasma, pH 7.4
Pharmacokinetics = settings: both, rhesus monkey, sc
[1] = Plasma protein binding by equilibrium dialysis
human Pgp (MDCK-MDR1) = human Pgp (MDCK-MDR1) (Homo sapiens, UniProt P08183); assay: Bidirectional transport across MDR1-MDCK cell monolayers; format: in vitro ADME; settings: CNO 5 μM
Chain of human Pgp (MDCK-MDR1) (P08183 whole entry): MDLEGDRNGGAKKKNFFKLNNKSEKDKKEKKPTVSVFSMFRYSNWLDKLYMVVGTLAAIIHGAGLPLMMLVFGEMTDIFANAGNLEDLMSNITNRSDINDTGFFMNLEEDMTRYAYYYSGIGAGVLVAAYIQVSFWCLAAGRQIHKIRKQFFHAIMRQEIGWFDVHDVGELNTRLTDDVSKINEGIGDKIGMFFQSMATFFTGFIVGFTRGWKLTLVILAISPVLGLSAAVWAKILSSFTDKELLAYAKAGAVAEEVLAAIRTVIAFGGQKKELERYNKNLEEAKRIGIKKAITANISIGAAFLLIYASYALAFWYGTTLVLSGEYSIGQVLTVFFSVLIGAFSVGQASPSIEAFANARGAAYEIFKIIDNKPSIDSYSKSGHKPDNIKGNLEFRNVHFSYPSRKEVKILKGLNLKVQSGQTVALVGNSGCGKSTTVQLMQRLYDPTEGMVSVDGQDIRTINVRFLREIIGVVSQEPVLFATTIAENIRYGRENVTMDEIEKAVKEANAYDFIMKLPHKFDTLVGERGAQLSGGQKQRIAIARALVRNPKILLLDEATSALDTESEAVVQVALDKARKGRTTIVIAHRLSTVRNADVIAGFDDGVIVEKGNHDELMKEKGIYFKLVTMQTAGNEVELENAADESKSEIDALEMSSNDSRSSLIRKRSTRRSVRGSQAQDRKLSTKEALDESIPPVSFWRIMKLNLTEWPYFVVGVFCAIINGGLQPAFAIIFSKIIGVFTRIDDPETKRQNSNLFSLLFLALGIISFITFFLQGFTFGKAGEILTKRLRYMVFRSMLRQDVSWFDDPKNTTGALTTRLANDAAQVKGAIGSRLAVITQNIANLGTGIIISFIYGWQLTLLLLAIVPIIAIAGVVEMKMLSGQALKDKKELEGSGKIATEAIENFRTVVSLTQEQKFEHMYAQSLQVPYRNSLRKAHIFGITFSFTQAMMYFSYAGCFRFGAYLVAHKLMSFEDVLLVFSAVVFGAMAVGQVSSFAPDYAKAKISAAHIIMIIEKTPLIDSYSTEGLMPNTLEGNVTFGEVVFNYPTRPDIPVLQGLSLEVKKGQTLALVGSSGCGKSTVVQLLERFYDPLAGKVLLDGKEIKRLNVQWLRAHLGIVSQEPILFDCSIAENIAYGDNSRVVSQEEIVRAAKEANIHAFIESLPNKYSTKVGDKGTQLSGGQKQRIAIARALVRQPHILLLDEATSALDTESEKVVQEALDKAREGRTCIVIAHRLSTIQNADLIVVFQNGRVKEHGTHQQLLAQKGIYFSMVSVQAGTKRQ

BCRP (MDCK-BCRP) = molecular target: T1, BCRP (MDCK-BCRP) (Homo sapiens, UniProt Q9UNQ0); assay: Bidirectional transport across BCRP-MDCK cell monolayers; format: in vitro ADME; settings: MDCK-BCRP monolayer; CNO 5 μM; 120 min; no inhibitor
T1 sequence (Q9UNQ0 1-655): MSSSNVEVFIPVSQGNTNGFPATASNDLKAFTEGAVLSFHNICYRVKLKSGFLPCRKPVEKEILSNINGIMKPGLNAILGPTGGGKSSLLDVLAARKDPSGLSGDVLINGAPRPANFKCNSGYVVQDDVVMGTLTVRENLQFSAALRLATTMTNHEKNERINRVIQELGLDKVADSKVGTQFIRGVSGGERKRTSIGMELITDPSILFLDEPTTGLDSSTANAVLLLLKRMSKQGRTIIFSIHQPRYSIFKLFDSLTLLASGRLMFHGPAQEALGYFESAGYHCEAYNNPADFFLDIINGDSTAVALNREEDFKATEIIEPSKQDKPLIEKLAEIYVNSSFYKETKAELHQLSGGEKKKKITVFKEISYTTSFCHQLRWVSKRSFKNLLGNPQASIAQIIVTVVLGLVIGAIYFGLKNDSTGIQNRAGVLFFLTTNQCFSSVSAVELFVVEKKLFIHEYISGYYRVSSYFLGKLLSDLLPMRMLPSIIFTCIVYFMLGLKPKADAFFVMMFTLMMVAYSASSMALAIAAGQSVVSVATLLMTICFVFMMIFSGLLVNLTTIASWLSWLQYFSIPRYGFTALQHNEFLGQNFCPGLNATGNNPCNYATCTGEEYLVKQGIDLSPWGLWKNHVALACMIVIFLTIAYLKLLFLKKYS

[2] = rhesus monkey, in vivo, sc
[3] = CNO 10 mg/kg IM, monkeys; cited from earlier work
[4] = MDCK-Pgp monolayer, 120 min, no inhibitor

| fraction unbound at 4 h, 1 μM (in vitro) | Tmax (Pharmacokinetics; CSF, 3 mg/kg) [h] | Tmax (Pharmacokinetics; CSF, 10 mg/kg) [h] | Tmax (Pharmacokinetics; plasma, 3 mg/kg) [h] | fraction unbound at 4 h, 1 μM ([1]; pH 7.4) | Molecule | A-B permeability (Papp) (human Pgp (MDCK-MDR1); [4]) [×10⁻⁶ cm/s] | B-A permeability (Papp) (human Pgp (MDCK-MDR1); [4]) [×10⁻⁶ cm/s] | Pgp substrate assessment (human Pgp (MDCK-MDR1); MDCK-Pgp) | A-B permeability (Papp) (BCRP (MDCK-BCRP)) [×10⁻⁶ cm/s] | B-A permeability (Papp) (BCRP (MDCK-BCRP)) [×10⁻⁶ cm/s] | AUC at 3 mg/kg as share of AUC at 10 mg/kg [2] | AUC ([2]; 3 mg/kg) [ng·h/mL] | AUC ([2]; 10 mg/kg) [ng·h/mL] | Cmax ([2]; 10 mg/kg) [µM] | Tmax ([2]; 10 mg/kg) [min ^b] | Tmax in CSF [3] [h] | average concentration in CSF [3] [ng/mL] | fu (fraction unbound), PPB ([1]; 1 μM, 4 h at 37 °C, equilibrium dialysis) |
| --- | --- | --- | --- | --- | --- | --- | --- | --- | --- | --- | --- | --- | --- | --- | --- | --- | --- | --- |
| 0.11 | 24 | 24 | 24 |  | Clc1ccc2c(c1)N=C(N1CCNCC1)c1ccccc1N2 [N-desmethylclozapine] |  |  |  |  |  |  |  |  |  |  |  |  |  |
|  | 2.67 | 2.67 | 2.67 | 0.05 | CN1CCN(C2=Nc3cc(Cl)ccc3Nc3ccccc32)CC1 [clozapine] |  |  |  |  |  |  |  |  |  |  |  |  |  |
|  |  |  |  |  | clozapine-N-oxide [CNO] | 0.05 | 1 | substrate of Pgp | 0.07 | 0.21 | approximately 65% | 519 | 795 | 7 | 90 | 1 | 9 | 0.43 |
